Target: T1, glucocorticoid receptor (GR) (Homo sapiens, UniProt P04150)
T1 construct: gene NR3C1; full-length GR
T1 sequence (P04150 1-777): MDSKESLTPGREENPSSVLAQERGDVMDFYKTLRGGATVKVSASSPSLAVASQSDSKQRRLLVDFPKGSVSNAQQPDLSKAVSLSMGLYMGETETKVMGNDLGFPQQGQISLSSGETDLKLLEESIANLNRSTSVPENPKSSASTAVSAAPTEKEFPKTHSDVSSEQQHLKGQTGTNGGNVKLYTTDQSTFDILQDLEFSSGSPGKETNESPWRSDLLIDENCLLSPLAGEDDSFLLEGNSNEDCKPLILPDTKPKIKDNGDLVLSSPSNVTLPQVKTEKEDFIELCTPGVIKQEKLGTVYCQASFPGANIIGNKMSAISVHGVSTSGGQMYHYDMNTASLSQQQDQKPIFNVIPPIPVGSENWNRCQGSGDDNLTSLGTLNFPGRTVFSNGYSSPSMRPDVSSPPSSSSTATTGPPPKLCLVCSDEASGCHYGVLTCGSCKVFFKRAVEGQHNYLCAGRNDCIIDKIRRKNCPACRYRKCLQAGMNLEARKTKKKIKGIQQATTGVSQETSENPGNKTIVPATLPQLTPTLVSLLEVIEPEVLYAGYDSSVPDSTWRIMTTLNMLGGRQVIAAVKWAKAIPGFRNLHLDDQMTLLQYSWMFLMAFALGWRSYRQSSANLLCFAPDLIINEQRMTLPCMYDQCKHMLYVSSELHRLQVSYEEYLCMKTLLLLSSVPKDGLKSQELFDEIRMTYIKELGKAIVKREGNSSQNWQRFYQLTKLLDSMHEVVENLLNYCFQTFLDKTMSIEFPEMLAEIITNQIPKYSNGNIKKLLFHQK
Test: fluorescence polarization competition with fluorescent glucocorticoid ligand (PolarScreen GR Competitor Assay), purified GR
Format: binding

SMILES: CC(=O)/C=C/C1=C(C)CCCC1(C)C [β-ionone]
- IC50: 66.1 µM
